# Source: ChEMBL document CHEMBL1806426, “Simple but powerful: phenanthroline-based small molecules for cellular imaging and cancer screening” (Bioorg Med Chem Lett, 2011)
# Assays:
# [1] = Drug uptake in human HET-1A endoplasmic reticulum after 5 mins by confocal microscopy; format: ADME
# [2] = Cytotoxicity against human OE21 cells assessed as cell survival after 24 hrs by MTT assay; format: functional, cell-based; details: OE21, 24 h
# [3] = Cytotoxicity against human HET-1A cells assessed as cell survival after 24 hrs by MTT assay; format: cell-based
# [4] = Drug uptake in human OE21 endoplasmic reticulum at 9 uM after 5 mins by confocal microscopy; format: ADME
# [5] = Drug uptake in human OE21 endoplasmic reticulum at 27 uM after 20 mins by confocal microscopy; format: ADME
# [6] = Ratio of IC50 for cytotoxicity against human HET-1A cells to IC50 for cytotoxicity against human OE21 cells; format: toxicity, cell-based; details: HET-1A cells and OE21 cells, read-out: Ratio IC50
# [7] = Drug uptake in human OE21 endoplasmic reticulum assessed as fluorescence intensity at 18 uM after 20 mins to 2 hrs by confocal microscopy; format: ADME
# [8] = Drug uptake in human HET-1A endoplasmic reticulum after 20 mins to 2 hrs by confocal microscopy; format: ADME
# [9] = Solubility of the compound in phosphate buffer solution at pH7.4; format: physicochemical; details: pH 7.4
Structure (SMILES),Drug uptake [1],IC50 [2] [nM],IC50 [3] [µM],Drug uptake [4],Drug uptake [5],selectivity ratio [6],Drug uptake [7],Drug uptake [8],solubility [9]
C[Si](C)(C)C#Cc1ccc(-c2nc3c4cccnc4c4ncccc4c3[nH]2)cc1,Active,440,3.02,Active,Active,7,Active,Active,soluble
Brc1ccc(-c2nc3c4cccnc4c4ncccc4c3[nH]2)cc1,–,770,3.15,Active,Active,4,Active,Active,soluble
